*1 amine or outer side, *2 acyl side, *3 side chain or, on linkers, in order; H or OH if unused. Where a SMILES comes first, the peptide text is derived from it. Side-chain parts run from the residue outwards. [ ]: non-standard residue; d: D form. The star is where a group is joined. X3 = CCCCCCCCCCCCCCCC(=O)N[C@@H](CCC(=O)N[C@@H](CCC(=O)N[C@@H](CCC(=O)N[C@@H](CCC(=O)NCCCC[C@H](NC(=O)CCC(=O)NCCCOCCOCCOCCCNC(=O)CCC(=O)NCCCOCCOCCOCCCN*)C(N)=O)C(=O)O)C(=O)O)C(=O)O)C(=O)O; PEG12 = NCCOCCOCCOCCOCCOCCOCCOCCOCCOCCOCCOCCOCCC(=O)O; γGlu = O=C(O)[C@H](CCC(=O)[*:2])N[*:1]; 1Nal = N[C@@H](Cc1cccc2ccccc12)C(=O)O; Stearoyl = CCCCCCCCCCCCCCCCCC(=O)*; Palmitoyl = CCCCCCCCCCCCCCCC(=O)*; αMeK = C[C@](N)(CCCCN)C(=O)O; αMeS = C[C@](N)(CO)C(=O)O; Nle = CCCC[C@H](N)C(=O)O; AEEA = NCCOCCOCC(=O)O; Aib = CC(C)(N)C(=O)O
Legend:
[1] = biological target: T1, RXFP1 (Homo sapiens, UniProt Q9HBX9); experiment: OVCAR5 cAMP assay (HTRF), RXFP1 agonist activity; format: cell-based; settings: for EC50: OVCAR5 cells, cAMP HTRF, read-out: EC50 (nM), OVCAR 5 cells (cAMP); for Emax: OVCAR-5, maximal cAMP relative to H2-relaxin maximum (100%), read-out: EMax, OVCAR 5 cells (cAMP)
T1 construct: OVCAR5 cells expressing endogenous RXFP1; endogenous in cells; host or cells: OVCAR5 cells
T1 sequence (Q9HBX9 1-757): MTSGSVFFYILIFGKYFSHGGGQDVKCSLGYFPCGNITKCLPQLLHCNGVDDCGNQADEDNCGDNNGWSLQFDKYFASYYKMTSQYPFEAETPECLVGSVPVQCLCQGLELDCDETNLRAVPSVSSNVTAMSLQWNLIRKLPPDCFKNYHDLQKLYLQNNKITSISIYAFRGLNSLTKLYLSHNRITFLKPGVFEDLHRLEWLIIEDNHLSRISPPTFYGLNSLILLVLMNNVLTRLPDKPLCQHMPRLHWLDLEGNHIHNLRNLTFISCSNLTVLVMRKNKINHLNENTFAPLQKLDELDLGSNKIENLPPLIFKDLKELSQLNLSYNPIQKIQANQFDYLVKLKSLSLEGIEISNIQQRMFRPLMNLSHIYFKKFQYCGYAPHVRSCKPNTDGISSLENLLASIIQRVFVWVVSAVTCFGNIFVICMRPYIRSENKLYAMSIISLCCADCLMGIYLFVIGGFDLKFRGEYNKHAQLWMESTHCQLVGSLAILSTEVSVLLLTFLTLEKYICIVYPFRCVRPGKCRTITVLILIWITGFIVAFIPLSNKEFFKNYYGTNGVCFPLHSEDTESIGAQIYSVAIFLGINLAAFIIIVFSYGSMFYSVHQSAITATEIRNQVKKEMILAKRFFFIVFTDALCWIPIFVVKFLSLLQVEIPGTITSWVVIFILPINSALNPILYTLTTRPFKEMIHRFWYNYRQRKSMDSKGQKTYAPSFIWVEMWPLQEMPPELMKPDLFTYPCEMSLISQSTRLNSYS
Method in brief: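 OVCAR5 cells (endogenous RXFP1) pretreated 40 min at 37° C with 1 mM IBMX, then exposed to peptides in serum-free medium for 30 min at 37° C. Lysate cAMP read by HTRF; EC50 from variable-slope sigmoidal fit; Emax as % of H2-relaxin maximal cAMP in same run.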

[2] = Pharmacokinetic (PK) determination after i.v. or s.c. administration to rats; format: in vivo, Sprague Dawley rats; settings: Sprague Dawley, Rat PK; for C0 / half-life: iv, 1 mg/kg i.v.; for C0: extrapolated plasma concentration at t=0, read-out: C0; for half-life / Cmax / Tmax / bioavailability: plasma; for half-life: read-out: T½ (converted); for Cmax / Tmax: sc, 3 mg/kg s.c.; for bioavailability: subcutaneous, 3 mg/kg s.c. vs 1 mg/kg i.v., dose-corrected AUC ratio
Protocol: Prior to the testing of a peptide batch, its purity (HPLC-UV) was determined. Dose was corrected for presence of salts, solvent and purity.
Sprague Dawley rats were dosed with study peptide at a dose of 1 mg/kg intravenously (i.v.) or 3 mg/kg subcutaneously (s.c.) as a solution in PBS (0.2 mg/ml and 0.6 mg/ml respectively).
Plasma samples were analyzed after protein precipitation via liquid chromatography mass spectrometry (LC/MS).
PK parameters and half-life were calculated using Phoenix 64 (WinNonlin 6.4)-Pharsight (Certara™) (non-compartment model). Values below the limit of quantification (BLQ) were replaced by zero for subsequent calculations and PK analysis.
T½: in-vivo half life, time required for test compound plasma concentration to be divided by two during the PK experiment.
C0: Extrapolated test compound plasma concentration at t=0 time point (i.v. route).
Cmax: maximal test compound plasma concentration at the indicated time point (s.c. route).
Tmax: Time point where Cmax is attained.
F %: s.c. vs i.v. bioavailability, dose-corrected area under curve (AUC) s.c. route divided by AUC i.v.

| EC50 [1] | Emax [1] | C0 [2] | half-life [2] | Cmax [2] | Tmax [2] | bioavailability [2] | SMILES |
| --- | --- | --- | --- | --- | --- | --- | --- |
| 0.16 nM | 90% | 3100 nM | 2.8 h | 2360 nM | 7 h | 41% | CCCCCCCCCCCCCCCCCC(=O)N[C@@H](CCC(=O)NCCOCCOCC(=O)N[C@@H](CCC(=O)N[C@@H](CCC(=O)NCCOCCOCC(=O)NCCOCCOCC(=O)NCCCC[C@H](NC(=O)[C@H](CCCCN)NC(=O)[C@H](CCCNC(=N)N)NC(=O)C(C)(C)NC(=O)[C@H](CO)NC(=O)[C@H](Cc1c[nH]c2ccccc12)NC(=O)[C@@H](NC(=O)[C@H](CO)NC(=O)[C@H](CCCC)NC(=O)CNC(=O)[C@H](CCC(=O)O)NC(=O)C(C)(C)NC(=O)C(C)(C)NC(=O)[C@@H](NC(=O)[C@H](CCC(N)=O)NC(=O)[C@H](C)NC(=O)[C@H](CCCNC(=N)N)NC(=O)[C@@H](NC(=O)[C@H](CCCCN)NC(=O)[C@H](CCC(=O)O)NC(=O)[C@H](CCCNC(=N)N)NC(=O)CNC(=O)[C@H](CCC(=O)O)NC(=O)[C@H](CC(C)C)NC(C)=O)C(C)C)[C@@H](C)CC)[C@@H](C)O)C(N)=O)C(=O)O)C(=O)O)C(=O)O [compound 100] (Ac-LEGREKVRAQI[Aib][Aib]EG[Nle]STWS[Aib]RKK([AEEA-AEEA-γGlu-γGlu-AEEA-γGlu-Stearoyl])-NH2) |
| 0.4 nM | 99% | 3440 nM | 5.4 h | 1670 nM | 8 h | 70% | CCCCCCCCCCCCCCCC(=O)N[C@@H](CCC(=O)NCCCC[C@H](NC(=O)CC[C@H](NC(=O)CC[C@H](NC(=O)CC[C@H](NC(=O)COCCOCCNC(=O)COCCOCCNC(=O)COCCOCCNC(=O)COCCOCCNC(=O)[C@H](CCCCNC(C)=O)NC(=O)[C@H](CCCCN)NC(=O)[C@H](CCCNC(=N)N)NC(=O)[C@](C)(CCCCN)NC(=O)[C@H](CO)NC(=O)[C@H](Cc1ccccc1)NC(=O)[C@@H](NC(=O)[C@H](CO)NC(=O)[C@H](CCCC)NC(=O)CNC(=O)[C@H](CCC(=O)O)NC(=O)C(C)(C)NC(=O)C(C)(C)NC(=O)[C@@H](NC(=O)[C@H](CCCCNC(C)=O)NC(=O)[C@H](C)NC(=O)[C@H](CCCNC(=N)N)NC(=O)[C@@H](NC(=O)[C@H](CCCCN)NC(=O)[C@H](CCC(=O)O)NC(=O)[C@H](CCCNC(=N)N)NC(=O)CNC(=O)[C@H](CCC(=O)O)NC(=O)[C@H](CC(C)C)NC(C)=O)C(C)C)[C@@H](C)CC)[C@@H](C)O)C(=O)O)C(=O)O)C(=O)O)C(N)=O)C(=O)O [compound 145] (Ac-LEGREKVRAK(Ac)I[Aib][Aib]EG[Nle]STFS[αMeK]RKK(Ac)[AEEA][AEEA][AEEA][AEEA][γGlu][γGlu][γGlu]K([γGlu-Palmitoyl])-NH2) |
| – | 83% | 5560 nM | 2.55 h | 1710 nM | 6 h | 40% | CCCCCCCCCCCCCCCCCC(=O)N[C@@H](CCC(=O)N[C@@H](CCC(=O)N[C@@H](CCC(=O)NCCCC[C@H](NC(=O)CCOCCOCCOCCOCCOCCOCCOCCOCCOCCOCCOCCOCCNC(=O)[C@H](CCCCNC(C)=O)NC(=O)[C@H](CCCCN)NC(=O)[C@H](CCCNC(=N)N)NC(=O)C(C)(C)NC(=O)[C@H](CO)NC(=O)[C@H](Cc1cccc2ccccc12)NC(=O)[C@@H](NC(=O)[C@H](CO)NC(=O)[C@H](CCCC)NC(=O)CNC(=O)[C@H](CCC(=O)O)NC(=O)C(C)(C)NC(=O)C(C)(C)NC(=O)[C@@H](NC(=O)[C@H](CCCCNC(C)=O)NC(=O)C(C)(C)NC(=O)[C@H](CCCNC(=N)N)NC(=O)[C@@H](NC(=O)[C@H](CCCCN)NC(=O)[C@H](CCC(=O)O)NC(=O)[C@H](CCCNC(=N)N)NC(=O)CNC(=O)[C@H](CCC(=O)O)NC(=O)[C@H](CC(C)C)NC(C)=O)C(C)C)[C@@H](C)CC)[C@@H](C)O)C(N)=O)C(=O)O)C(=O)O)C(=O)O [compound 37] (Ac-LEGREKVR[Aib]K(Ac)I[Aib][Aib]EG[Nle]ST[1Nal]S[Aib]RKK(Ac)[PEG12]K([γGlu-γGlu-γGlu-Stearoyl])-NH2) |
| – | 88% | 2900 nM | 3 h | 1300 nM | 7 h | 89% | CCCCCCCCCCCCCCCCCC(=O)N[C@@H](CCC(=O)N[C@@H](CCC(=O)N[C@@H](CCC(=O)N[C@@H](CCC(=O)NCCOCCOCC(=O)NCCOCCOCC(=O)NCCOCCOCC(=O)NCCOCCOCC(=O)NCCCC[C@H](NC(=O)[C@H](CCCCN)NC(=O)[C@H](CCCCN)NC(=O)[C@H](CCCNC(=N)N)NC(=O)C(C)(C)NC(=O)[C@H](CO)NC(=O)[C@H](Cc1c[nH]c2ccccc12)NC(=O)[C@@H](NC(=O)[C@H](CO)NC(=O)[C@H](CCCC)NC(=O)CNC(=O)[C@H](CCC(=O)O)NC(=O)C(C)(C)NC(=O)C(C)(C)NC(=O)[C@@H](NC(=O)[C@H](CCCCNC(C)=O)NC(=O)[C@H](C)NC(=O)[C@H](CCCNC(=N)N)NC(=O)[C@@H](NC(=O)[C@H](CCCCN)NC(=O)[C@H](CCC(=O)O)NC(=O)[C@H](CCCNC(=N)N)NC(=O)CNC(=O)[C@H](CCC(=O)O)NC(=O)[C@H](CC(C)C)NC(C)=O)C(C)C)[C@@H](C)CC)[C@@H](C)O)C(N)=O)C(=O)O)C(=O)O)C(=O)O)C(=O)O [compound 91] (Ac-LEGREKVRAK(Ac)I[Aib][Aib]EG[Nle]STWS[Aib]RKKK([AEEA-AEEA-AEEA-AEEA-γGlu-γGlu-γGlu-γGlu-Stearoyl])-NH2) |
| 0.02 nM | 90% | 7080 nM | 3.6 h | 1540 nM | 6 h | 66% | CCCCCCCCCCCCCCCCCC(=O)N[C@@H](CCC(=O)N[C@@H](CCC(=O)N[C@@H](CCC(=O)N[C@@H](CCC(=O)NCCCC[C@H](NC(=O)CCOCCOCCOCCOCCOCCOCCOCCOCCOCCOCCOCCOCCNC(=O)[C@H](CCCCNC(C)=O)NC(=O)[C@H](CCCCN)NC(=O)[C@H](CCCNC(=N)N)NC(=O)[C@](C)(CCCCN)NC(=O)[C@](C)(CO)NC(=O)[C@H](Cc1c[nH]c2ccccc12)NC(=O)[C@@H](NC(=O)[C@H](CO)NC(=O)[C@H](CCCC)NC(=O)CNC(=O)[C@H](CCC(=O)O)NC(=O)C(C)(C)NC(=O)C(C)(C)NC(=O)[C@@H](NC(=O)[C@H](CCCCNC(C)=O)NC(=O)[C@H](C)NC(=O)[C@H](CCCNC(=N)N)NC(=O)[C@@H](NC(=O)[C@H](CCCCN)NC(=O)[C@H](CCC(=O)O)NC(=O)[C@H](CCCNC(=N)N)NC(=O)CNC(=O)[C@H](CCC(=O)O)NC(=O)[C@H](CC(C)C)NC(C)=O)C(C)C)[C@@H](C)CC)[C@@H](C)O)C(N)=O)C(=O)O)C(=O)O)C(=O)O)C(=O)O [compound 40] (Ac-LEGREKVRAK(Ac)I[Aib][Aib]EG[Nle]STW[αMeS][αMeK]RKK(Ac)[PEG12]K([γGlu-γGlu-γGlu-γGlu-Stearoyl])-NH2) |
| 0.12 nM | 91% | 3200 nM | 5 h | 2300 nM | 5 h | 64% | CCCCCCCCCCCCCCCC(=O)N[C@@H](CCC(=O)N[C@@H](CCC(=O)N[C@@H](CCC(=O)N[C@@H](CCC(=O)NCCCC[C@H](NC(=O)CCC(=O)NCCCOCCOCCOCCCNC(=O)CCC(=O)NCCCOCCOCCOCCCNC(=O)[C@H](CCCCNC(C)=O)NC(=O)[C@H](C)NC(=O)[C@H](CCCNC(=N)N)NC(=O)[C@](C)(CCCCN)NC(=O)[C@H](CO)NC(=O)[C@H](Cc1ccccc1)NC(=O)[C@@H](NC(=O)[C@H](CO)NC(=O)[C@H](CCCC)NC(=O)CNC(=O)[C@H](CCC(=O)O)NC(=O)C(C)(C)NC(=O)C(C)(C)NC(=O)[C@@H](NC(=O)[C@H](CCCCNC(C)=O)NC(=O)[C@H](C)NC(=O)[C@H](CCCNC(=N)N)NC(=O)[C@@H](NC(=O)[C@H](CCCCN)NC(=O)[C@H](CCC(=O)O)NC(=O)[C@H](CCCNC(=N)N)NC(=O)CNC(=O)[C@H](CCC(=O)O)NC(=O)[C@H](CC(C)C)NC(C)=O)C(C)C)[C@@H](C)CC)[C@@H](C)O)C(N)=O)C(=O)O)C(=O)O)C(=O)O)C(=O)O [compound 162] (Ac-LEGREKVRAK(Ac)I[Aib][Aib]EG[Nle]STFS[αMeK]RAK(Ac)-X3) |

Source: patent US10988523B2, “Modified lipidated Relaxin B chain peptides and their therapeutic use” (Sanofi, priority 2018, dated 2021)
